Experiments:
[1] = target: Homeodomain-interacting protein kinase 1 (Homo sapiens, UniProt Q86Z02); assay: Selectivity interaction (Enzymatic assay (Eurofins)) EUB0001049a HIPK1
[2] = target: Tyrosine-protein kinase ABL2 (Homo sapiens, UniProt P42684); assay: Selectivity interaction (KinomeScan (DiscoverX)) EUB0000595a ABL2; conditions: at 10 µM
[3] = target: Dual specificity protein kinase CLK3 (Homo sapiens, UniProt P49761); conditions: at 10 µM
[4] = target: T1, Myotonin-protein kinase (Homo sapiens) (UniProt Q09013); assay: Selectivity interaction (KinomeScan (DiscoverX)) EUB0000229b DMPK; conditions: at 10 µM
T1 sequence (whole entry): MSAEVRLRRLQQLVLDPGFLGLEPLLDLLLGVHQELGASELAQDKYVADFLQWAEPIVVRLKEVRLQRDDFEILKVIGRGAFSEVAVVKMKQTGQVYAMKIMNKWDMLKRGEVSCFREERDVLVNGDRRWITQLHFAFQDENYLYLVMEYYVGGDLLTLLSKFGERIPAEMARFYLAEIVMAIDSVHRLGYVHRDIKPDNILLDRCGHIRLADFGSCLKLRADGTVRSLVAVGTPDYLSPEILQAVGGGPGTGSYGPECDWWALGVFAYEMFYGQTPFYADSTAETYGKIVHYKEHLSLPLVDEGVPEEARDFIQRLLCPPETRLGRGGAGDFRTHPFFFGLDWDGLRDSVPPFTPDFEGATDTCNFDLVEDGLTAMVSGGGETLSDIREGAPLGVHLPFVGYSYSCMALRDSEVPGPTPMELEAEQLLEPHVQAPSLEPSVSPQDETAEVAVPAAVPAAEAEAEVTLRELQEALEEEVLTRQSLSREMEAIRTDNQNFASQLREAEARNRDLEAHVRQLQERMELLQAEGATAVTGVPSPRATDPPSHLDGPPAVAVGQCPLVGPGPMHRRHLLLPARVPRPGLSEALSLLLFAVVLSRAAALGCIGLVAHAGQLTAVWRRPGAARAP

[5] = target: T2, Ephrin type-B receptor 1 (Homo sapiens) (UniProt P54762); assay: Selectivity interaction (Upstate Kinase Profiler service (Millipore)) EUB0000056c EPHB1; conditions: at 1 µM
T2 sequence (whole entry): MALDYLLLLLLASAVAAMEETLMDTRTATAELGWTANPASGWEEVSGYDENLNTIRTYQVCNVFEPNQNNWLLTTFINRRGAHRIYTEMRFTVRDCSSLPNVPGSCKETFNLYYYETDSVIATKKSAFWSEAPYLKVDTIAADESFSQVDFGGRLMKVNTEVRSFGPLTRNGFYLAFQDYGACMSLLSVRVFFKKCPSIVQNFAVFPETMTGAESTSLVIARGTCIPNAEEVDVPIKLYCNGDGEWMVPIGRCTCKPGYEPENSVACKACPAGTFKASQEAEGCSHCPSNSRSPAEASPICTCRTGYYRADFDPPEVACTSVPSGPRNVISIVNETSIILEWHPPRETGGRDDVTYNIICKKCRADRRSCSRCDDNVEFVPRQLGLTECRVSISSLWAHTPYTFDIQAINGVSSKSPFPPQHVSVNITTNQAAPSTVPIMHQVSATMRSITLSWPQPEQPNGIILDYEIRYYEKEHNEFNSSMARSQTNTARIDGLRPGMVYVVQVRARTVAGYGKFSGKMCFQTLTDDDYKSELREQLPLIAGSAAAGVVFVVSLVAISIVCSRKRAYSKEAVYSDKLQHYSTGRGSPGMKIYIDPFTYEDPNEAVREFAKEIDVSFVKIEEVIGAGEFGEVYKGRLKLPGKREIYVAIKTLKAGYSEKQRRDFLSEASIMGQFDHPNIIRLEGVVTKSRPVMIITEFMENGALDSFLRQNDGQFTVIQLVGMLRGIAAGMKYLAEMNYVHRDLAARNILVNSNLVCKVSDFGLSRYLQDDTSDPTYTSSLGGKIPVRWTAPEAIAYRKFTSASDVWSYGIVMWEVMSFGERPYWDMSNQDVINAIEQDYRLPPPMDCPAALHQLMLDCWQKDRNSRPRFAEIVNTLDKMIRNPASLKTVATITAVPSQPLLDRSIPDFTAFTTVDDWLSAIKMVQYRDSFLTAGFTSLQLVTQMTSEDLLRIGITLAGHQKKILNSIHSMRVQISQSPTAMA

[6] = target: Cyclin-dependent kinase 11B (Homo sapiens) (UniProt P21127); assay: Selectivity interaction (KinomeScan (DiscoverX)) EUB0000655a CDK11B; conditions: at 10 µM
[7] = target: T3, Mitogen-activated protein kinase kinase kinase 2 (Homo sapiens) (UniProt Q9Y2U5); assay: Selectivity interaction (KinomeScan (DiscoverX)) EUB0000618a MAP3K2; conditions: at 10 µM
T3 sequence (whole entry): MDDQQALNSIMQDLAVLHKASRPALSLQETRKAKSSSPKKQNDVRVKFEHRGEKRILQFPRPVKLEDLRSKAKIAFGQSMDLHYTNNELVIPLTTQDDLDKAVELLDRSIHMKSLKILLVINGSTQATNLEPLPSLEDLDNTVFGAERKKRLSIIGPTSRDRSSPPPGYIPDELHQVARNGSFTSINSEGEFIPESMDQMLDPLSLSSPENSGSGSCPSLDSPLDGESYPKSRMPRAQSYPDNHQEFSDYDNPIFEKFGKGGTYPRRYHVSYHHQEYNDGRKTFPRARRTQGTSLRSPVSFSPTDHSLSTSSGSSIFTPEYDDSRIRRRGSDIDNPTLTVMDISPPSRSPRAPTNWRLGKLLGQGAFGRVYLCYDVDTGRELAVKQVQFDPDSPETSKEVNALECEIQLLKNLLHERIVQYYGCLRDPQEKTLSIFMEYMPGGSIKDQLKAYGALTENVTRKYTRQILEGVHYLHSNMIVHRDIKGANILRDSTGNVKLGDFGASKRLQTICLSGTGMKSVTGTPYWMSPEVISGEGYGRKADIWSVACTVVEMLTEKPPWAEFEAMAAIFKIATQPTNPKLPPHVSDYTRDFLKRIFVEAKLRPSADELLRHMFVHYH

Sequence of Cyclin-dependent kinase 11B (Homo sapiens) (P21127 whole entry): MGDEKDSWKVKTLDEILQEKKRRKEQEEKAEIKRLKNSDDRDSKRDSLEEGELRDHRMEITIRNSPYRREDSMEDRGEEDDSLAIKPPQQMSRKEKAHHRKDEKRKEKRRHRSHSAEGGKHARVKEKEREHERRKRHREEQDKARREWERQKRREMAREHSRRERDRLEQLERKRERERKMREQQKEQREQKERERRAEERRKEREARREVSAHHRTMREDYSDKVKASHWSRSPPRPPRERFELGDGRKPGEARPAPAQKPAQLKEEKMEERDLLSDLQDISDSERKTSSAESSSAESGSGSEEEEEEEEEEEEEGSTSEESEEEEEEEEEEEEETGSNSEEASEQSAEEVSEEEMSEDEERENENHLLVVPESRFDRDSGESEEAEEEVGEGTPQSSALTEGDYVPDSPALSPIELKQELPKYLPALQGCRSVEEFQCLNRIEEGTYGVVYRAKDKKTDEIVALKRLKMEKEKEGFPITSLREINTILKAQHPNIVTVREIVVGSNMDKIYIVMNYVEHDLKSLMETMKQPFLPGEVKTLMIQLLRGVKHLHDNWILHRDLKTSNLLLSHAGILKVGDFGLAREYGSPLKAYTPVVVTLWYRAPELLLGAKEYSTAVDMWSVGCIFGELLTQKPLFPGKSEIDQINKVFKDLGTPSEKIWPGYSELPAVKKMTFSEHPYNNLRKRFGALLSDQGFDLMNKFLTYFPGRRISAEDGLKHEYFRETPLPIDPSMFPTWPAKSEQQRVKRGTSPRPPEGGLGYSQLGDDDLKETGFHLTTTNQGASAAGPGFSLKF
Sequence of Dual specificity protein kinase CLK3 (P49761 whole entry, looked up): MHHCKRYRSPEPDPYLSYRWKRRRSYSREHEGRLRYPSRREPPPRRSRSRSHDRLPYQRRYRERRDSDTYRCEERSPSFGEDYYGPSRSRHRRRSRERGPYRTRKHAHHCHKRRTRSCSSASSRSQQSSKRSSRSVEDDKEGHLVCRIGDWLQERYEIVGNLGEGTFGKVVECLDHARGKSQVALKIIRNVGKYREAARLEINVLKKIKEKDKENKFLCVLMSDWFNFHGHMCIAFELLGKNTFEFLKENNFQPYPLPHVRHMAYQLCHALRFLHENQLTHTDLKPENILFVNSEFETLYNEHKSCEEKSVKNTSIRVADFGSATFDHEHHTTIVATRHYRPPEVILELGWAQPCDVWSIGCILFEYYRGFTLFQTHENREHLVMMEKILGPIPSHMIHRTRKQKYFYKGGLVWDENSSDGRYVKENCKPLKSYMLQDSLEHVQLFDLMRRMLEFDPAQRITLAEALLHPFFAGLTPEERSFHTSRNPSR
Sequence of Homeodomain-interacting protein kinase 1 (Q86Z02 whole entry): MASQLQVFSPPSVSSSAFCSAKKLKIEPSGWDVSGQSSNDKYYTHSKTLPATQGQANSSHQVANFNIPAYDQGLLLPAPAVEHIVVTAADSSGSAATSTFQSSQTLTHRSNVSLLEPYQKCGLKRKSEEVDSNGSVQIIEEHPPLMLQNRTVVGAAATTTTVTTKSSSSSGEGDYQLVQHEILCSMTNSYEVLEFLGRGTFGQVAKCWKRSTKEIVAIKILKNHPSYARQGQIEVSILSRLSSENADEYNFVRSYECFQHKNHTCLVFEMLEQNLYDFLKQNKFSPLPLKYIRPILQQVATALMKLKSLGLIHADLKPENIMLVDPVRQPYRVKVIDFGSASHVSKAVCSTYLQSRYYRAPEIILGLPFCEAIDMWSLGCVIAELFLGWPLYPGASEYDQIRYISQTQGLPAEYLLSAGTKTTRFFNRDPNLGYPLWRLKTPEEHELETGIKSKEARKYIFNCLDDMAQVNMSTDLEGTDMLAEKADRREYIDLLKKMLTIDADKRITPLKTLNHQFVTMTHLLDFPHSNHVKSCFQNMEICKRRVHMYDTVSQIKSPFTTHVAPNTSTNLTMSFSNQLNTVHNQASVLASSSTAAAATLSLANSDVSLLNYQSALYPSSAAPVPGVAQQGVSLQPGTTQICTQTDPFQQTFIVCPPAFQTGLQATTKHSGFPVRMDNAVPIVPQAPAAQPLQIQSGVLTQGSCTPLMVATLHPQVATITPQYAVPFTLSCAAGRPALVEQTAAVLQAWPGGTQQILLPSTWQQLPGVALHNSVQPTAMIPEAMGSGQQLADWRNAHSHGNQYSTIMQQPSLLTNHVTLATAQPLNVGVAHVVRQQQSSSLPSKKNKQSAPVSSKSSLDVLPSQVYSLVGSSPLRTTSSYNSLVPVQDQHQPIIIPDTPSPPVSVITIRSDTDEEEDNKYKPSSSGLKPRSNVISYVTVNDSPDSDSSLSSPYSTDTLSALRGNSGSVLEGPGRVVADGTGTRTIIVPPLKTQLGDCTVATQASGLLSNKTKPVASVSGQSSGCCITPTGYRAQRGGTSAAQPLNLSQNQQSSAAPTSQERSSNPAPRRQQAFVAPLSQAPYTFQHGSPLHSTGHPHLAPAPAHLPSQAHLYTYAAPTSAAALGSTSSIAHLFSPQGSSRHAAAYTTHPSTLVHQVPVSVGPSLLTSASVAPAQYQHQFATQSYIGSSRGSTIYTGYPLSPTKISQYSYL
Sequence of Tyrosine-protein kinase ABL2 (P42684 whole entry): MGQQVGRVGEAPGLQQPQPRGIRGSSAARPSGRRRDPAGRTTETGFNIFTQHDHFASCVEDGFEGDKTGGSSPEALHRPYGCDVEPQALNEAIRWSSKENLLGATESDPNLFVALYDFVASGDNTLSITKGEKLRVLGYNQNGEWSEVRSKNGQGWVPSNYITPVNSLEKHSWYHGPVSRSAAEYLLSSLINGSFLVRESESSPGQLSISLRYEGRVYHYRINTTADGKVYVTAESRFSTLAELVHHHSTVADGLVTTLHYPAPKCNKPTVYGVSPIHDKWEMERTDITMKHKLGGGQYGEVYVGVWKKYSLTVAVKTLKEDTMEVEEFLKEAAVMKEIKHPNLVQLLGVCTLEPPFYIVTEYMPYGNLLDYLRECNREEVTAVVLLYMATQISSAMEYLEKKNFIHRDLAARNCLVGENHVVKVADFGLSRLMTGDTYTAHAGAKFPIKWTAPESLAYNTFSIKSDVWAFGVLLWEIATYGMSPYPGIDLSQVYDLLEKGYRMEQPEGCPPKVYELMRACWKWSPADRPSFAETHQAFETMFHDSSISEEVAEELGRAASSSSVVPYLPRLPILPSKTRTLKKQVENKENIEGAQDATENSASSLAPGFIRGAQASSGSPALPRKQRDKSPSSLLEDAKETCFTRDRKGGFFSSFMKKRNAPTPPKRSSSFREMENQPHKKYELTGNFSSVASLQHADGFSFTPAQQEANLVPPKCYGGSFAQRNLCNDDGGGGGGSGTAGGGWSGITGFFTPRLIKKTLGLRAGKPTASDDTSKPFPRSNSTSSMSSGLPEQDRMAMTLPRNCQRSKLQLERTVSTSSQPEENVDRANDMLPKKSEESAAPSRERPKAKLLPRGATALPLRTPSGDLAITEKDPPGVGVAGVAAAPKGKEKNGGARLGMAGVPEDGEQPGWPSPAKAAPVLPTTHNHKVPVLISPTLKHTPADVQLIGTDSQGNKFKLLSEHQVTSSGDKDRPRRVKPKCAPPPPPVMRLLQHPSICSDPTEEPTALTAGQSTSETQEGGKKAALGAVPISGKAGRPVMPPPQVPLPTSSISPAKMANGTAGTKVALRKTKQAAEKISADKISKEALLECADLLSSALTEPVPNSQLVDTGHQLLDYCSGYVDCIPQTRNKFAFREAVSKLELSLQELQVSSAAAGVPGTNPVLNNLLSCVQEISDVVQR

Question: With `COc1cc(Nc2nc(C)cc(-c3cnn4nc(OC)ccc34)n2)cc(C(F)(F)F)c1` as the compound, how does the IC50 [1] read?
Answer: > 10 µM

Question: With `COCC(=O)NC/C=C/c1ccc2ncnc(Nc3ccc(Oc4ccc(C)nc4)c(C)c3)c2c1` [CP-724714] as the compound, how does the % of control [2] read?
Answer: 100%

Question: And the % of control [3]?
Answer: 100%

Question: `COc1cc(N(C)c2ccnc3ccc(C(F)(F)F)cc23)cc(OC)c1OC` was tested. Which % binding [4] did it give?
Answer: 87%

Question: With `Cc1ccc(-c2ccc3c(ccc4sc5c(c43)NC[C@@H](C)NC5=O)n2)cn1` as the compound, how does the % of inhibition [5] read?
Answer: 9%

Question: Which % of control [6] does the source give for `CN(C)CCOc1ccc(-c2nc(-c3ccncc3)c(-c3ccc4c(c3)CC/C4=N\O)[nH]2)cc1` here?
Answer: 100%

Question: With `O[C@H]1CC[C@H](Nc2ncc3nc(Nc4c(F)cc(F)cc4F)n([C@H]4CCOC4)c3n2)CC1` as the compound, how does the % of control [7] read?
Answer: 82%

Source: ChEMBL document CHEMBL5465560, “Selectivity Literature for EUbOPEN Chemogenomic Library” (2024)
